{"source": "ChEMBL document CHEMBL5608244", "about": "“Preclinical Evaluation of Dihydropyrazole-Cored Positron Emission Tomography (PET) Ligands for Imaging of Receptor-Interacting Serine/Threonine Protein Kinase 1 (RIPK1) in the Brain” (J Med Chem, 2024)", "key": {"[1]": {"experiment": "Biodistribution in ICR mouse pancreas at 0.74 MBq, iv measured after 2 mins by automatic gamma counter analysis", "format": "ADME, organism-based", "conditions": "in vivo; call rule not given here"}, "[2]": {"experiment": "Retention time of the compound by HPLC method", "format": "physicochemical"}, "[3]": {"experiment": "Drug uptake in medulla of ICR mouse brain at 0.5 to 10 uM incubated for 30 mins by Phosphor Imager analysis", "format": "ADME, tissue-based, Medulla of organ", "conditions": "0.5 h, dose 0.5-10 µM"}, "[4]": {"experiment": "Biodistribution in ICR mouse pancreas at 0.74 MBq, iv measured after 10 mins by automatic gamma counter analysis", "format": "ADME, organism-based", "conditions": "in vivo"}, "[5]": {"experiment": "Biodistribution in ICR mouse brain at 0.74 MBq, iv measured after 60 mins by automatic gamma counter analysis", "format": "ADME, organism-based", "conditions": "in vivo, 1 h"}, "[6]": {"experiment": "Biodistribution in ICR mouse brain at 0.74 MBq, iv measured after 2 mins by automatic gamma counter analysis", "format": "ADME, organism-based", "conditions": "in vivo"}, "[7]": {"experiment": "Drug uptake in Sprague-Dawley rat brain at 10 to 17.6 MBq, iv treated for about 1 min by PET analysis", "format": "ADME, organism-based", "conditions": "in vivo, dose 10-17.6 MBq"}, "[8]": {"experiment": "Biodistribution in ICR mouse assessed as decrease in drug accumulation in small intestine at 0.74 MBq, iv pretreated with GSK'547 followed by compound administration measured after 10 mins by automatic gamma counter analysis", "format": "ADME, organism-based", "design": "scale not given: the % may be the effect or the level left", "conditions": "in vivo"}, "[9]": {"experiment": "Biodistribution in ICR mouse assessed as drug accumulation in bone without marrow at 0.74 MBq, iv pretreated with GSK'547 followed by compound administration measured after 10 mins by automatic gamma counter analysis", "format": "ADME, organism-based", "conditions": "in vivo"}, "[10]": {"experiment": "Biodistribution in ICR mouse lung at 0.74 MBq, iv measured after 2 mins by automatic gamma counter analysis", "format": "ADME, organism-based", "conditions": "in vivo"}, "[11]": {"experiment": "Drug uptake in cerebellum of ICR mouse brain at 0.5 to 10 uM incubated for 30 mins by Phosphor Imager analysis", "format": "ADME, tissue-based", "conditions": "0.5 h, dose 0.5-10 µM"}, "[12]": {"experiment": "Biodistribution in ICR mouse bone at 0.74 MBq, iv measured after 10 mins by automatic gamma counter analysis", "format": "ADME, organism-based, Bone element", "conditions": "in vivo"}, "[13]": {"experiment": "Biodistribution in ICR mouse stomach at 0.74 MBq, iv measured after 2 mins by automatic gamma counter analysis", "format": "ADME, organism-based", "conditions": "in vivo"}, "[14]": {"experiment": "Drug uptake in brain of Sprague-Dawley rat at 9.9 to 14.8 MBq, iv measured for 5 mins by PET analysis", "format": "ADME, organism-based", "conditions": "in vivo, dose 9.9-14.8 MBq"}, "[15]": {"experiment": "Drug uptake in brain of TNF-alpha-induced SIRS Sprague-Dawley rat model at 9.9 to 14.8 MBq, iv measured for 5 mins by PET analysis", "format": "ADME, organism-based", "conditions": "in vivo, dose 9.9-14.8 MBq"}, "[16]": {"experiment": "Biodistribution in ICR mouse kidneys at 0.74 MBq, iv measured after 2 mins by automatic gamma counter analysis", "format": "ADME, organism-based, Kidney", "conditions": "in vivo"}, "[17]": {"experiment": "Biodistribution in ICR mouse kidneys at 0.74 MBq, iv measured after 60 mins by automatic gamma counter analysis", "format": "ADME, organism-based, Kidney", "conditions": "in vivo, 1 h"}, "[18]": {"experiment": "Drug uptake in brain of TNF-alpha-induced SIRS Sprague-Dawley rat model assessed as decrease in radioactivity at 9.9 to 14.8 MBq, iv measured upto 20 mins by PET analysis", "format": "ADME, organism-based", "design": "scale not given: the % may be the effect or the level left", "conditions": "in vivo, dose 9.9-14.8 MBq"}, "[19]": {"experiment": "Drug uptake in thalamus of ICR mouse brain assessed as reduction in radioactivity incubated for 30 mins in presence of 1-(5-(3-fluorophenyl)-4,5-dihydro-1H-pyrazol-1-yl)-2,2-dimethylpropan-1-one by Phosphor Imager analysis", "format": "ADME, tissue-based", "conditions": "0.5 h, dose 0.5-10 µM"}, "[20]": {"experiment": "Biodistribution in ICR mouse assessed as decrease in drug accumulation in small intestine at 0.74 MBq, iv pretreated with 1-(5-(3-fluorophenyl)-4,5-dihydro-1H-pyrazol-1-yl)-2,2-dimethylpropan-1-one followed by compound administration measured after 10 mins by automatic gamma counter analysis", "format": "ADME, organism-based", "design": "scale not given: the % may be the effect or the level left", "conditions": "in vivo"}, "[21]": {"experiment": "Biodistribution in ICR mouse pancreas at 0.74 MBq, iv measured after 60 mins by automatic gamma counter analysis", "format": "ADME, organism-based", "conditions": "in vivo, 1 h"}, "[22]": {"experiment": "Drug metabolism in mouse brain assessed as polar radiometabolites accumulation at 13.5 MBq, iv measured after 30 mins by HPLC analysis", "format": "ADME, organism-based", "conditions": "in vivo, 0.5 h"}, "[23]": {"experiment": "Biodistribution in ICR mouse liver at 0.74 MBq, iv measured after 30 mins by automatic gamma counter analysis", "format": "ADME, organism-based", "conditions": "in vivo, 0.5 h"}, "[24]": {"experiment": "Biodistribution in ICR mouse stomach at 0.74 MBq, iv measured after 60 mins by automatic gamma counter analysis", "format": "ADME, organism-based", "conditions": "in vivo, 1 h"}, "[25]": {"experiment": "Biodistribution in ICR mouse assessed as decrease in drug accumulation in bone with marrow at 0.74 MBq, iv pretreated with 1-(5-(3-fluorophenyl)-4,5-dihydro-1H-pyrazol-1-yl)-2,2-dimethylpropan-1-one followed by compound administration measured after 10 mins by automatic gamma counter analysis", "format": "ADME, organism-based", "design": "scale not given: the % may be the effect or the level left", "conditions": "in vivo"}, "[26]": {"experiment": "Biodistribution in ICR mouse heart at 0.74 MBq, iv measured after 60 mins by automatic gamma counter analysis", "format": "ADME, organism-based", "conditions": "in vivo, 1 h"}, "[27]": {"experiment": "Biodistribution in ICR mouse assessed as decrease in drug accumulation in bone with marrow at 0.74 MBq, iv pretreated with GSK'547 followed by compound administration measured after 10 mins by automatic gamma counter analysis", "format": "ADME, organism-based", "design": "scale not given: the % may be the effect or the level left", "conditions": "in vivo"}, "[28]": {"experiment": "Biodistribution in ICR mouse lung at 0.74 MBq, iv measured after 60 mins by automatic gamma counter analysis", "format": "ADME, organism-based", "conditions": "in vivo, 1 h"}, "[29]": {"experiment": "Drug uptake in Sprague-Dawley rat bone at 10 to 17.6 MBq, iv treated upto 30 mins by PET analysis", "format": "ADME, organism-based, Bone element", "conditions": "in vivo, 0.5 h, dose 10-17.6 MBq"}, "[30]": {"experiment": "Drug uptake in Sprague-Dawley rat brain assessed as reduction in radioactivity at 10 to 17.6 MBq, iv pretreated with 1-(5-(3-fluorophenyl)-4,5-dihydro-1H-pyrazol-1-yl)-2,2-dimethylpropan-1-one followed by compound administration measured upto 30 mins by PET analysis", "format": "ADME, organism-based", "design": "scale not given: the % may be the effect or the level left", "conditions": "in vivo, 0.5 h, dose 10-17.6 MBq"}, "[31]": {"experiment": "Drug uptake in thalamus of ICR mouse brain assessed as reduction in radioactivity incubated for 30 mins in presence of GSK'547 by Phosphor Imager analysis", "format": "ADME, tissue-based", "conditions": "0.5 h"}, "[32]": {"experiment": "Biodistribution in ICR mouse kidneys at 0.74 MBq, iv measured after 30 mins by automatic gamma counter analysis", "format": "ADME, organism-based, Kidney", "conditions": "in vivo, 0.5 h"}, "[33]": {"experiment": "Biodistribution in ICR mouse brain at 0.74 MBq, iv measured after 30 mins by automatic gamma counter analysis", "format": "ADME, organism-based", "conditions": "in vivo, 0.5 h"}, "[34]": {"experiment": "Biodistribution in ICR mouse heart at 0.74 MBq, iv measured after 2 mins by automatic gamma counter analysis", "format": "ADME, organism-based", "conditions": "in vivo"}, "[35]": {"experiment": "Biodistribution in ICR mouse heart at 0.74 MBq, iv measured after 30 mins by automatic gamma counter analysis", "format": "ADME, organism-based", "conditions": "in vivo, 0.5 h"}, "[36]": {"experiment": "Drug metabolism in mouse brain assessed as parent compound remaining at 13.5 MBq, iv measured after 30 mins by HPLC analysis", "format": "ADME, organism-based", "conditions": "read-out: Activity"}, "[37]": {"experiment": "Biodistribution in ICR mouse blood at 0.74 MBq, iv measured after 2 mins by automatic gamma counter analysis", "format": "ADME, organism-based", "conditions": "in vivo"}, "[38]": {"experiment": "Drug uptake in thalamus of ICR mouse brain at 0.5 to 10 uM incubated for 30 mins by Phosphor Imager analysis", "format": "ADME, tissue-based", "conditions": "0.5 h, dose 0.5-10 µM"}, "[39]": {"experiment": "Biodistribution in ICR mouse liver at 0.74 MBq, iv measured after 2 mins by automatic gamma counter analysis", "format": "ADME, organism-based", "conditions": "in vivo"}, "[40]": {"experiment": "Biodistribution in ICR mouse bone at 0.74 MBq, iv measured after 60 mins by automatic gamma counter analysis", "format": "ADME, organism-based, Bone element", "conditions": "in vivo, 1 h"}}, "data": [{"smiles": "CC(C)(C)C(=O)N1N=CCC1c1cccc([18F])c1", "note": "(stereo not given)", "values": [{"measurement": "Drug uptake", "setting": "[1]", "result": 6.65, "unit": "% ID/g"}, {"measurement": "Retention_time", "setting": "[2]", "result": 21.84, "unit": "min"}, {"measurement": "Drug uptake", "setting": "[3]", "result": "Active"}, {"measurement": "Drug uptake", "setting": "[4]", "result": 3.07, "unit": "% ID/g"}, {"measurement": "Drug uptake", "setting": "[5]", "result": 0.21, "unit": "% ID/g"}, {"measurement": "Drug uptake", "setting": "[6]", "result": 4.89, "unit": "% ID/g"}, {"measurement": "SUVmax", "setting": "[7]", "result": 1.3}, {"measurement": "Activity", "setting": "[8]", "result": 13.3, "unit": "%"}, {"measurement": "Drug uptake", "setting": "[9]", "result": 12.1, "unit": "%"}, {"measurement": "Drug uptake", "setting": "[10]", "result": 16.41, "unit": "% ID/g"}, {"measurement": "Drug uptake", "setting": "[11]", "result": "Active"}, {"measurement": "Drug uptake", "setting": "[12]", "result": 4.17, "unit": "% ID/g"}, {"measurement": "Drug uptake", "setting": "[13]", "result": 0.9, "unit": "% ID/g"}, {"measurement": "Drug uptake", "setting": "[14]", "result": "Active"}, {"measurement": "Drug uptake", "setting": "[15]", "result": "Active"}, {"measurement": "Drug uptake", "setting": "[16]", "result": 10.39, "unit": "% ID/g"}, {"measurement": "Drug uptake", "setting": "[17]", "result": 3.95, "unit": "% ID/g"}, {"measurement": "Activity", "setting": "[18]", "result": 9.1, "unit": "%"}, {"measurement": "Activity", "setting": "[19]", "result": "Dose-Dependent Effect"}, {"measurement": "Activity", "setting": "[20]", "result": 25.3, "unit": "%"}, {"measurement": "Drug uptake", "setting": "[21]", "result": 1.46, "unit": "% ID/g"}, {"measurement": "Drug metabolism", "setting": "[22]", "result": "Metabolite_Detected"}, {"measurement": "Drug uptake", "setting": "[23]", "result": 7.56, "unit": "% ID/g"}, {"measurement": "Drug uptake", "setting": "[24]", "result": 0.18, "unit": "% ID/g"}, {"measurement": "Activity", "setting": "[25]", "result": 14.8, "unit": "%"}, {"measurement": "Drug uptake", "setting": "[26]", "result": 0.5, "unit": "% ID/g"}, {"measurement": "Activity", "setting": "[27]", "result": 11.9, "unit": "%"}, {"measurement": "Drug uptake", "setting": "[28]", "result": 1.03, "unit": "% ID/g"}, {"measurement": "Drug uptake", "setting": "[29]", "result": "Not Active"}, {"measurement": "Activity", "setting": "[30]", "result": 21.7, "unit": "%"}, {"measurement": "Activity", "setting": "[31]", "result": "Dose-Dependent Effect"}, {"measurement": "Drug uptake", "setting": "[32]", "result": 9.68, "unit": "% ID/g"}, {"measurement": "Drug uptake", "setting": "[33]", "result": 0.48, "unit": "% ID/g"}, {"measurement": "Drug uptake", "setting": "[34]", "result": 6.8, "unit": "% ID/g"}, {"measurement": "Drug uptake", "setting": "[35]", "result": 1.3, "unit": "% ID/g"}, {"measurement": "remaining at 0.5 h", "setting": "[36]", "result": 22.4, "unit": "%"}, {"measurement": "Drug uptake", "setting": "[37]", "result": 4.79, "unit": "% ID/g"}, {"measurement": "Drug uptake", "setting": "[38]", "result": "Active"}, {"measurement": "Drug uptake", "setting": "[39]", "result": 10.83, "unit": "% ID/g"}, {"measurement": "Drug uptake", "setting": "[40]", "result": 5.69, "unit": "% ID/g"}]}]}
